# Laboratory results: article PMC11091220, “Metabolism-driven in vitro/in vivo disconnect of an oral ERɑ VHL-PROTAC” (Communications Biology, 2024)
# Assays:
# ERα = target: T1, ERα (Homo sapiens, UniProt P03372); assay: CRISPR VHL knock out, ERα imaging in MCF7 Cas9 cells; assay type: cell-based; settings: MCF7 Cas9, 24 h
# T1 construct: endogenous in cells; host or cells: MCF7 (also MCF7 engineered to express Cas9)
# T1 sequence (P03372 1-595): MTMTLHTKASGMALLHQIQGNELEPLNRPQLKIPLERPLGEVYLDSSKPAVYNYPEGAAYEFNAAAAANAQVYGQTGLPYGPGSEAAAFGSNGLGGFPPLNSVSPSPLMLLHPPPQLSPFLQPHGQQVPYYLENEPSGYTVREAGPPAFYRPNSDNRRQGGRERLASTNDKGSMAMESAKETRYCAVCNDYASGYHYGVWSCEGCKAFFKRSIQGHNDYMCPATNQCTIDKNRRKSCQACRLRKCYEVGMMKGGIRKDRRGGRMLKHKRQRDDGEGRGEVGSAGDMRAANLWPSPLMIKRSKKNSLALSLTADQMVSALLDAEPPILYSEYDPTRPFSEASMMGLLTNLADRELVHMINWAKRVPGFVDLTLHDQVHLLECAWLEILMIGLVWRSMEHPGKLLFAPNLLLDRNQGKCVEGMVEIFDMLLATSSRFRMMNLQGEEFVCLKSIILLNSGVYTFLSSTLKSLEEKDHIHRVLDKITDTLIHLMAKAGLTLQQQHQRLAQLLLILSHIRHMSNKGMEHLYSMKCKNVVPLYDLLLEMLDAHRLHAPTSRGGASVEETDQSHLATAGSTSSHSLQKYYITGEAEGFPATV
# Procedure: Chemically synthesised Edit-R crRNAs targeting VHL and ESR1 were purchased from Horizon Discovery (Cambridge, UK). Equal volumes of 4 crRNAs targeting each individual gene were pooled and then duplexed at a 1:1 ratio in 10 mM Tris pH7.4 buffer with tracrRNA (Horizon, U-002000-50) at room temperature. MCF7 cells were engineered to express cas9 under TetON promotor from the endogenous AAVS1 locus as described previously. Doxycycline-inducible Cas9 is linked via the cleavable T2A peptide to BFP enabling the identification of Cas9-positive cells by microscopy. MCF7 cas9 cells were cultured in RPMI phenol red free (Sigma) supplemented with 10% FBS and 1X GlutaMax (both Gibco). 72 h prior to reverse transfection, cas9 expression was induced by the addition 15 ng/mL doxycycline (Sigma) to the growth media.
# MCF7 cells were reverse transfected with the crRNA:tracrRNA pools at 25 nM final concentration using Lipofectamine® RNAiMAX transfection reagent (Thermo Fisher): First crRNA:tracrRNA pools were dispensed into 384-well assay plates (Greiner, 781090), and incubated with 10 µL serum-free DMEM (Sigma) supplemented with 1% Lipofectamine RNAiMAX for 20 minutes at room temperature. […] Following image acquisition, analysis was completed using the Columbus Image Analysis platform (Perkin Elmer) to quantify ESR1 levels in cas9-positive cells. […]
# CAMA1 cells = assay: Cell proliferation assay (Sytox Green), CAMA1; assay type: cell-based; settings: Homo sapiens, CAMA-1, 144 h; CAMA1, 6 days; read-out: growth inhibition IC50
# Procedure: Cell proliferation was assessed by measuring live cell numbers using the Sytox Green assay. MCF7 and CAMA1 cells were seeded in 96-well clear-bottom black microplates (Costar) at 4x10^3 and 8x10^3 cells per well, respectively, based on the doubling time of each cell line. Plates were incubated at 37 °C, 5% CO2 for 24 hours prior to being treated with DMSO, AZ’6421 or fulvestrant in a 10-point concentration range, with a final DMSO concentration of 0.1%. A single plate was left untreated, designated a Day 0 plate. The number of live cells was determined at Day 0 and Day 7 using the Sytox green assay. Briefly, 5 mM Sytox green nucleic acid dye (Invitrogen) was diluted 1:2500 in 500 mM tris-buffered saline (TBS) with ethylenediaminetetraacetic acid (EDTA) and 7 μL was added per well. Plates were then incubated in the dark at room temperature for 1 hour and the number of green cells in each well (dead cells) was measured using an Acumen Explorer high-throughput cell imager (TTP Labtech). Next, 14 μL of 0.25% w/v Saponin in TBS/EDTA solution was added overnight to permeabilize the cells, permitting a total cell count. The number of live cells was calculated by subtracting the dead cell count from the total cell count. The data obtained were then used to perform curve fitting analysis using GraphPad Prism. Average cell counts from the Day 0 plate were used to determine 0% cell growth. […]
structure (smiles),measurement,setting,value
Cc1ncsc1-c1ccc(CNC(=O)[C@@H]2C[C@@H](O)CN2C(=O)[C@@H](NC(=O)COCCCOCCCOc2cc(F)c([C@@H]3c4[nH]c5ccccc5c4C[C@@H](C)N3CC(C)(C)F)c(F)c2)C(C)(C)C)cc1 [Compound 5],effect of VHL knockout on ER degradation,ERα,partially reduced
same,IC50,CAMA1 cells,0.2 nM
